# Columns and labels:
# HepG2 = assay: Antitumor activity against human HepG2 cells assessed as inhibition of cell viability by MTT assay; type: functional, cell-based
# HCT-116 = assay: Antitumor activity against human HCT-116 cells assessed as inhibition of cell viability by MTT assay; type: functional, cell-based
# [1] = Lipophilicity, logP of the compound; type: physicochemical; settings: octanol/water
# MCF7 = assay: Antitumor activity against human MCF7 cells assessed as inhibition of cell viability by MTT assay; type: functional, cell-based
# [2] = biological target: Epidermal growth factor receptor (Homo sapiens, UniProt P00533); assay: Inhibition of EGFR-TK (unknown origin) relative to control
# Sequence of Epidermal growth factor receptor (P00533 whole entry): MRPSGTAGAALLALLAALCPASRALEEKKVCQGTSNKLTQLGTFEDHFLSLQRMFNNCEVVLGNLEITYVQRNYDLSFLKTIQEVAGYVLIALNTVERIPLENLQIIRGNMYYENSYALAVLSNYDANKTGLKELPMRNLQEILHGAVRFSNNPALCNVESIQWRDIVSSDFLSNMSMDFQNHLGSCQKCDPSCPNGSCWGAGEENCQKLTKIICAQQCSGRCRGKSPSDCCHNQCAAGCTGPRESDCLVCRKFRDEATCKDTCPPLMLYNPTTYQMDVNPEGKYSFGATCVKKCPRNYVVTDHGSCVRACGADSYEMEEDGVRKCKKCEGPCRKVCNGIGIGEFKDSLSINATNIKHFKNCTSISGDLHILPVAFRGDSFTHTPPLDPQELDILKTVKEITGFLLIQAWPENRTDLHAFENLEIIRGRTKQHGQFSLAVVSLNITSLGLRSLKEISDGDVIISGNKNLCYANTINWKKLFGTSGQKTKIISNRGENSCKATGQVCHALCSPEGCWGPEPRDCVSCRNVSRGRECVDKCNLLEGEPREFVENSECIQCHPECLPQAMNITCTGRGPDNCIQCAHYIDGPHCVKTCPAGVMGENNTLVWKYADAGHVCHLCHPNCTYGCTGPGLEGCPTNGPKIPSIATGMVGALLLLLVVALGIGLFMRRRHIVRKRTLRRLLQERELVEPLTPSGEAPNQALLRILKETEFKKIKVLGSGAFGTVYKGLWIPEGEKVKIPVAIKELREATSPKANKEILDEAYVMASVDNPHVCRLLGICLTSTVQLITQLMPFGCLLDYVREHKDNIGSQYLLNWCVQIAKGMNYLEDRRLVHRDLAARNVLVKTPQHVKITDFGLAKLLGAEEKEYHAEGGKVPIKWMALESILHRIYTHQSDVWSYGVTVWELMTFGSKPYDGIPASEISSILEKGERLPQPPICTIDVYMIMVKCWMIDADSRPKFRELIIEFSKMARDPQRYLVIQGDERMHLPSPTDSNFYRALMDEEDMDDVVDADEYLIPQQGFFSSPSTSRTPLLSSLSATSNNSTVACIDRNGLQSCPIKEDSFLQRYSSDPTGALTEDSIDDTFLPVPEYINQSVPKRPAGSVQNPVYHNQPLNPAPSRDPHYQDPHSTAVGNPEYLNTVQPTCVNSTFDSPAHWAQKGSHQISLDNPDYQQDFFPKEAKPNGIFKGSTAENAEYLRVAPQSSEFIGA
# DNA topoisomerase 2-beta = DNA topoisomerase 2-beta (Homo sapiens, UniProt Q02880); assay: Inhibition of Topoisomerase II beta (unknown origin) relative to control
# Sequence of DNA topoisomerase 2-beta (Q02880 whole entry): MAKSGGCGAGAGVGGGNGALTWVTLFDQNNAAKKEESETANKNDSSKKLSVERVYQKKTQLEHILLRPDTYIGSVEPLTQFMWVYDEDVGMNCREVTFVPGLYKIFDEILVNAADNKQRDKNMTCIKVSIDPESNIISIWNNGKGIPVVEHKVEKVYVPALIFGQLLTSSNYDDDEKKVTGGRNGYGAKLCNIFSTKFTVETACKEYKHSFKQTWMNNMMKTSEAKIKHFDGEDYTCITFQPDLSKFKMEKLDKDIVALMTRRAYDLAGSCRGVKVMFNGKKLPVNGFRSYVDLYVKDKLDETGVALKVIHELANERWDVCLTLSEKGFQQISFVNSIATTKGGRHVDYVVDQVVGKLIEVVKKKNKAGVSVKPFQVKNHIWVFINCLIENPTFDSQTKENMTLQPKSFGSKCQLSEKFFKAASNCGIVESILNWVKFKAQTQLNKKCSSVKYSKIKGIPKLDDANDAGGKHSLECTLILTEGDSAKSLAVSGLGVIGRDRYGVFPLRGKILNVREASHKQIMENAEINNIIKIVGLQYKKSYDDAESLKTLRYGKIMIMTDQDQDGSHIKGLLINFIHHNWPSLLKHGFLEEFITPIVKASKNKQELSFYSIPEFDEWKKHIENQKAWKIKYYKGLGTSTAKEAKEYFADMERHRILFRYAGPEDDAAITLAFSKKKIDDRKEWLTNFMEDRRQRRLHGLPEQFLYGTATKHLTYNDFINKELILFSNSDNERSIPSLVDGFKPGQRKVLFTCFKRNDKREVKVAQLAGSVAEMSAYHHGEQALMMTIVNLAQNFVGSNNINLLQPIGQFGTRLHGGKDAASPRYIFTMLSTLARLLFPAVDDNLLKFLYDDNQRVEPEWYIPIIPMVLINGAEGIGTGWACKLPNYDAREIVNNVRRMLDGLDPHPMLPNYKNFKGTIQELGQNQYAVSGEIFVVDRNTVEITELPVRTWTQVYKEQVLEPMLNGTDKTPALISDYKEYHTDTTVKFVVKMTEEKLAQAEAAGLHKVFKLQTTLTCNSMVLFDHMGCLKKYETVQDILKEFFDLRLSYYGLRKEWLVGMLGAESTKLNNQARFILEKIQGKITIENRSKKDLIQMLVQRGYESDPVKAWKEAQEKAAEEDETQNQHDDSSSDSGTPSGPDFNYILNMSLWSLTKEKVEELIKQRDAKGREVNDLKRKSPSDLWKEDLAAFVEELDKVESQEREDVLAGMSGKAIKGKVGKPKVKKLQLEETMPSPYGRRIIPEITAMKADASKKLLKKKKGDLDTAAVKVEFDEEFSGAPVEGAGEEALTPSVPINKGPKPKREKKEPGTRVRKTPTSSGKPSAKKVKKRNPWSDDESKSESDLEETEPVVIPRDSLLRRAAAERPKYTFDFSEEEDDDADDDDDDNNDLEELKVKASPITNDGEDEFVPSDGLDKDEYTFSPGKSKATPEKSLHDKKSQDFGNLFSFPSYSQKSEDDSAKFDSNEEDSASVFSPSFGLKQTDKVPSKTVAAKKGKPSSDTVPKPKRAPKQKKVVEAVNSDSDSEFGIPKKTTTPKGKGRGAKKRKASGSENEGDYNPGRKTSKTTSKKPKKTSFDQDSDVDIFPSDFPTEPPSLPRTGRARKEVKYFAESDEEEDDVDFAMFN
SMILES,IC50 (HepG2),IC50 (HCT-116),logP [1],IC50 (MCF7),IC50 [2],IC50 (DNA topoisomerase 2-beta)
CCN1CCN(CCC(=O)Nc2cc(C(C)(C)C)on2)CC1,76.4 µM,91.2 µM,2.24,61.3 µM,–,–
Cc1cc(NC(=O)CCN2CCN(c3ccccc3)CC2)no1,51.8 µM,46.1 µM,1.84,29.1 µM,–,–
Cc1ccc(/C=C2/SC(Nc3cc(C)on3)=NC2=O)cc1,> 100 µM,> 100 µM,3.43,> 100 µM,–,–
CC(C)(C)c1cc(NC2=NC(=O)/C(=C\c3ccc(Cl)c(Cl)c3)S2)no1,43.8 µM,62.8 µM,–,32.5 µM,–,–
CC(C)(C)c1cc(N2C(=O)c3c(Br)c(Br)c(Br)c(Br)c3C2=O)no1,90.4 µM,> 100 µM,–,64.9 µM,–,–
Cc1cc(NC(=O)CN2CCN(Cc3ccccc3)CC2)no1,50.3 µM,73.2 µM,1.63,44.8 µM,–,–
CC(C)(C)c1cc(NC(=O)CCN2CCOCC2)no1,93.5 µM,> 100 µM,–,78.2 µM,–,–
Cc1cc(N2C(=O)c3c(Br)c(Br)c(Br)c(Br)c3C2=O)no1,> 100 µM,> 100 µM,–,> 100 µM,–,–
Cc1cc(NC(=O)CCN2CCOCC2)no1,71.5 µM,89.6 µM,–,51.9 µM,–,–
Cc1cc(NC2=NC(=O)/C(=C\c3c(F)cccc3Cl)S2)no1,31.1 µM,31.8 µM,–,21.4 µM,–,–
Cc1cc(NC(=O)CN2CCOCC2)no1,> 100 µM,> 100 µM,0.19,81.8 µM,–,–
Cc1cc(NC(=O)CCCl)no1,62 µM,75.3 µM,–,48.9 µM,–,–
Cc1cc(NC2=NC(=O)/C(=C\c3ccc4ccccc4c3)S2)no1,> 100 µM,> 100 µM,4.16,> 100 µM,–,–
CC(C)(C)c1cc(NC(=O)CN2CCN(c3ccccc3)CC2)no1,28.4 µM,24.7 µM,3.66,17.2 µM,0.066 µM,–
CC(C)(C)c1cc(NC2=NC(=O)/C(=C\c3ccc(Br)cc3)S2)no1,48.2 µM,64.4 µM,5.51,36.1 µM,–,–
CC(C)(C)c1cc(NC(=O)CCN2CCN(Cc3ccccc3)CC2)no1,83 µM,85.2 µM,3.26,55.4 µM,–,–
CC(C)(C)c1cc(NC(=O)CCl)no1,9.74 µM,9.96 µM,2.27,7.15 µM,0.124 µM,–
COc1cccc2c1C(=O)c1c(O)c3c(c(O)c1C2=O)C[C@@](O)(C(=O)CO)C[C@@H]3O[C@H]1C[C@H](N)[C@H](O)[C@H](C)O1 [DOXORUBICIN],–,–,–,–,–,0.727 µM
CC(C)(C)c1cc(N2C(=O)c3c(Cl)c(Cl)c(Cl)c(Cl)c3C2=O)no1,> 100 µM,> 100 µM,–,88.3 µM,–,–
CN1CCN(CCC(=O)Nc2cc(C(C)(C)C)on2)CC1,> 100 µM,> 100 µM,1.86,74.6 µM,–,–
Cc1cc(NC2=NC(=O)/C(=C\c3ccc(Br)cc3)S2)no1,87.8 µM,95 µM,3.79,68.7 µM,–,–
CC(C)(C)c1cc(NC(=O)CN2CCN(Cc3ccccc3)CC2)no1,57.1 µM,78.4 µM,3.36,47.9 µM,–,–
Cc1cc(NC(=O)CN2CCN(c3ccccc3)CC2)no1,35 µM,26.2 µM,1.93,16.7 µM,0.064 µM,–
CC(C)(C)c1cc(NC2=NC(=O)/C(=C\c3ccc(-c4ccccc4)cc3)S2)no1,84.7 µM,86.4 µM,6.5,59.3 µM,–,–

SMILES,IC50 (HepG2),IC50 (HCT-116),logP [1],IC50 (MCF7),IC50 [2],IC50 (DNA topoisomerase 2-beta)
Cc1cc(NC2=NC(=O)/C(=C\c3ccc(-c4ccccc4)cc3)S2)no1,> 100 µM,> 100 µM,4.78,> 100 µM,–,–
Cc1cc(NC(=O)CCl)no1,11.1 µM,13.1 µM,0.55,10.4 µM,0.106 µM,–
Cc1cc(NC2=NC(=O)CS2)no1,23.8 µM,20.8 µM,0.24,14.8 µM,0.081 µM,–
Cc1cc(NC(=O)CCN2CCN(C)CC2)no1,56.7 µM,75.8 µM,0.14,44.2 µM,–,–
CCN1CCN(CCC(=O)Nc2cc(C)on2)CC1,52.2 µM,69 µM,0.51,45.7 µM,–,–
Cc1ccc(/C=C2/SC(Nc3cc(C(C)(C)C)on3)=NC2=O)cc1,55.4 µM,51.3 µM,5.15,39.6 µM,–,–
Cc1cc(NC(=O)CN2CCN(C)CC2)no1,63.5 µM,88.2 µM,0.23,65.1 µM,–,–
CC(C)(C)c1cc(NC(=O)CN2CCOCC2)no1,25 µM,28 µM,1.91,19.6 µM,0.144 µM,–
CCN1CCN(CC(=O)Nc2cc(C(C)(C)C)on2)CC1,39.1 µM,38.4 µM,2.33,27.1 µM,–,–
Cc1cc(N2C(=O)c3c(Cl)c(Cl)c(Cl)c(Cl)c3C2=O)no1,> 100 µM,> 100 µM,–,> 100 µM,–,–
CC(C)(C)c1cc(NC(=O)CCN2CCN(c3ccccc3)CC2)no1,37.1 µM,33.6 µM,3.56,23 µM,–,–
CC(C)(C)c1cc(NC2=NC(=O)/C(=C\c3ccco3)S2)no1,68.2 µM,66.7 µM,–,42.9 µM,–,–
Cc1cc(NC(=O)CCN2CCN(Cc3ccccc3)CC2)no1,89.4 µM,> 100 µM,1.54,92.2 µM,–,–
Cc1cc(NC2=NC(=O)/C(=C\c3ccco3)S2)no1,41.6 µM,58.3 µM,–,30.3 µM,–,–
Cc1cc(NC2=NC(=O)/C(=C\c3ccc(Cl)c(Cl)c3)S2)no1,45.2 µM,40.6 µM,–,37.7 µM,–,–
CC(C)(C)c1cc(NC2=NC(=O)CS2)no1,18.3 µM,11.5 µM,1.97,9.42 µM,0.15 µM,–
CC(C)(C)c1cc(NC2=NC(=O)/C(=C\c3ccc(Br)s3)S2)no1,> 100 µM,> 100 µM,–,> 100 µM,–,–
CC(C)(C)c1cc(NC2=NC(=O)/C(=C\c3ccc4ccccc4c3)S2)no1,79.2 µM,94.2 µM,5.89,67.6 µM,–,–
CC(C)(C)c1cc(NC2=NC(=O)/C(=C\c3c(F)cccc3Cl)S2)no1,91.6 µM,> 100 µM,–,70.6 µM,–,–
CC(C)(C)c1cc(NC(=O)CCCl)no1,74.8 µM,92.6 µM,–,59.8 µM,–,–
CN1CCN(CC(=O)Nc2cc(C(C)(C)C)on2)CC1,65.3 µM,80.1 µM,1.96,56.2 µM,–,–
Cc1cc(NC2=NC(=O)/C(=C\c3ccc(Br)s3)S2)no1,32.8 µM,36.6 µM,–,24.2 µM,–,–
CCN1CCN(CC(=O)Nc2cc(C)on2)CC1,19.5 µM,17.6 µM,0.61,12.6 µM,0.081 µM,–

# Source: ChEMBL document CHEMBL4665865, “New series of isoxazole derivatives targeting EGFR-TK: Synthesis, molecular modeling and antitumor evaluation” (Bioorg Med Chem, 2020)
